This note sets out measurements from patent publication US20220388964A1 (HiberCell, Inc., priority 2019, published 2022).

GCN2, sequence (Q9P2K8 whole entry): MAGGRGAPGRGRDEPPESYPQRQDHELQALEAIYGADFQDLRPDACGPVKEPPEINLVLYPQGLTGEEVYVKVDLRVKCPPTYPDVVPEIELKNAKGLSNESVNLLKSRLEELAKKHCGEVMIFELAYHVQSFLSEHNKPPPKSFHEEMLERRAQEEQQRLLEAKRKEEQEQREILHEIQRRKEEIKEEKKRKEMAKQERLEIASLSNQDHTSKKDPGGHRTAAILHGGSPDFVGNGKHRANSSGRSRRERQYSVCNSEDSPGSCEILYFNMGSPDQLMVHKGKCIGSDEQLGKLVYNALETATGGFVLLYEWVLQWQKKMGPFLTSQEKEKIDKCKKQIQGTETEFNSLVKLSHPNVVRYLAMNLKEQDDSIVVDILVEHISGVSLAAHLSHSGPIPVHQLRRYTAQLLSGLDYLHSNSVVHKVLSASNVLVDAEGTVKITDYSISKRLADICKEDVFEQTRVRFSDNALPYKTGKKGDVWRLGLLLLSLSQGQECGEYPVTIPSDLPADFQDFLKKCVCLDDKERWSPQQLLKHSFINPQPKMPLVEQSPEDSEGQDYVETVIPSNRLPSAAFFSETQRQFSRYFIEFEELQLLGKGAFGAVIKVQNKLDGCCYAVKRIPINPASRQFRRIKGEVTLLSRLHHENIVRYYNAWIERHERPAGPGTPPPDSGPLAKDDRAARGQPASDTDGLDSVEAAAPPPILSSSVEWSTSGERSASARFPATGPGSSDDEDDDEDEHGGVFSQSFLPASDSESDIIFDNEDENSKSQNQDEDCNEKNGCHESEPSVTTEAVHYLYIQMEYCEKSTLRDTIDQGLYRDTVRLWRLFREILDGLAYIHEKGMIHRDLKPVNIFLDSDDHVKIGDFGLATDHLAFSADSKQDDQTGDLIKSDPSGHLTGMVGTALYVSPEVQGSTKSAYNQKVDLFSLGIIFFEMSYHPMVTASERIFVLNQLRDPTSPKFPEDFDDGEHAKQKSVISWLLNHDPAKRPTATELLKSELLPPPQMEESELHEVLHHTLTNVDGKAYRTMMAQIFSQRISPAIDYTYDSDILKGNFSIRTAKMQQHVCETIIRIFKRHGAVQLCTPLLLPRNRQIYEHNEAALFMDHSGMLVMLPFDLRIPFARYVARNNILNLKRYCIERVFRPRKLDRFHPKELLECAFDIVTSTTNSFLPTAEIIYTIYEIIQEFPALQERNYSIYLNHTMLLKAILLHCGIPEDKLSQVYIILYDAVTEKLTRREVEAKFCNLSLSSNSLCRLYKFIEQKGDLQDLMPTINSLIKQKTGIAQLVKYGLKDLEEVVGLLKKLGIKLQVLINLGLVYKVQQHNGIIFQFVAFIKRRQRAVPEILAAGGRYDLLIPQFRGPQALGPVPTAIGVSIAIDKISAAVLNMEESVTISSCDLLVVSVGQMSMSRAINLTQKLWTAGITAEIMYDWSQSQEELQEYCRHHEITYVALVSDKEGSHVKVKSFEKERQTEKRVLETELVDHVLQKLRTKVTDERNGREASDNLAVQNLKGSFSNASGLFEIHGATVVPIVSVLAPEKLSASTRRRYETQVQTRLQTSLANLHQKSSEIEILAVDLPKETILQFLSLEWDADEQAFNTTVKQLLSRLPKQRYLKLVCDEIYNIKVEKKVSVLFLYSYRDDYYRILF

The first experiment concerns the target GCN2 (Homo sapiens, UniProt Q9P2K8). In words: TR-FRET biochemical assay for inhibition of GCN2 (Example 106, for Example 1-4BB). Particulars: Table 8. On the technique in general: TR-FRET usually uses a lanthanide donor and a delayed reading to cut background.
Consider `O=S(=O)(Nc1ccc(F)c(-c2ccc3c(-c4ncc[nH]4)n[nH]c3c2F)c1F)c1ccc(F)cc1Cl` [Example 2BS], for which the IC50 is < 500 nM.

Turning to `Cc1cccc(S(=O)(=O)Nc2ccc(F)c(-c3ccc4c(-c5ncc[nH]5)n[nH]c4c3F)c2F)c1C` [Example 2AI, N-(2,4-difluoro-3-(7-fluoro-3-(1H-imidazol-2-yl)-1H-indazol-6-yl)phenyl)-2,3-dimethylbenzenesulfonamide], the IC50 is < 500 nM.

Consider `O=S(=O)(Nc1ccc(F)c(-c2ccc3c(-c4ncc[nH]4)n[nH]c3c2F)c1F)c1c(F)cccc1F` [Example 2BG, N-(2,4-difluoro-3-(7-fluoro-3-(1H-imidazol-2-yl)-1H-indazol-6-yl)phenyl)-2,6-difluorobenzenesulfonamide], for which the IC50 is < 500 nM.

With `COc1ncc(Cl)cc1S(=O)(=O)Nc1ccc(F)c(-c2ccc3cn[nH]c3c2)c1F` [Example 2BY, 5-chloro-N-(2,4-difluoro-3-(1H-indazol-6-yl)-phenyl)-2-methoxypyridine-3-sulfonamide], the IC50 is 500 to 2500 nM.

For `Cn1cccc(S(=O)(=O)Nc2ccc(F)c(-c3ccc4c(-c5ncc[nH]5)n[nH]c4c3F)c2F)c1=O` [Example 2AJ, N-(2,4-difluoro-3-(7-fluoro-3-(1H-imidazol-2-yl)-1H-indazol-6-yl)phenyl)-1-methyl-2-oxo-1,2-dihydro-pyridine-3-sulfonamide], the IC50 was in the range of 2500 to 10000 nM.

Turning to `COc1ccc(S(=O)(=O)Nc2ccc(F)c(-c3ccc4c(-c5ncc[nH]5)n[nH]c4c3F)c2F)cc1` [Example 2B, N-(2,4-difluoro-3-(7-fluoro-3-(1H-imidazol-2-yl)-1H-indazol-6-yl)phenyl)-4-methoxybenzene-sulfonamide], the IC50 lay within 500 to 2500 nM.

For `COc1ncccc1S(=O)(=O)Nc1ncc(F)c(-c2ccc3c(-c4ncc[nH]4)n[nH]c3c2F)c1F` [Example 2CL, N-(3,5-difluoro-4-(7-fluoro-3-(1H-imidazol-2-yl)-1H-indazol-6-yl)pyridin-2-yl)-2-methoxypyridine-3-sulfonamide], the IC50 is < 500 nM.

Consider `Cc1ncccc1S(=O)(=O)Nc1ccc(F)c(-c2ccc3c(-c4ncc[nH]4)n[nH]c3c2F)c1F` [Example 2, N-(2,4-difluoro-3-(7-fluoro-3-(1H-imidazol-2-yl)-1H-indazol-6-yl)phenyl)-2-methylpyridine-3-sulfonamide], for which the IC50 is < 500 nM.

As to `Cc1cnc(C)c(S(=O)(=O)Nc2ccc(F)c(-c3ccc4c(-c5ncc[nH]5)n[nH]c4c3F)c2F)c1` [Example 2AH, N-(2,4-difluoro-3-(7-fluoro-3-(1H-imidazol-2-yl)-1H-indazol-6-yl)phenyl)-2,5-dimethyl-pyridine-3-sulfonamide], the IC50 is < 500 nM.

With `COc1ncc(Cl)cc1S(=O)(=O)Nc1ncnc(-c2ccc3c(-c4ncc[nH]4)n[nH]c3c2F)c1F` [Example 2AK, 5-chloro-N-(5-fluoro-6-(7-fluoro-3-(1H-imidazol-2-yl)-1H-indazol-6-yl)pyrimidin-4-yl)-2-methoxypyridine-3-sulfonamide], the IC50 is < 500 nM.

The experiment is the same for the next values; noted with them: Table 9.
Consider `CNC(=O)c1n[nH]c2c(F)c(-c3c(F)cnc(NS(=O)(=O)c4cc(F)cnc4C)c3F)ccc12` [Example 24, 6-(3,5-Difluoro-2-((5-fluoro-2-methylpyridine)-3-sulfonamido)pyridin-4-yl)-7-fluoro-N-methyl-1H-indazole-3-carboxamide], for which the IC50 was > 10000 nM.

For `COc1ncc(F)cc1S(=O)(=O)Nc1cccc(-c2ccc3c(C(=O)NC[C@@H](O)CO)n[nH]c3c2F)c1F` [Example 3AX, 6-(2-fluoro-3-((5-fluoro-2-methoxypyridine)-3-sulfonamido)phenyl)-N-((R)-2,3-dihydroxypropyl)-7-fluoro-1H-indazole-3-carboxamide], the IC50 was 500 to 2500 nM.

In the case of `COc1ncc(Cl)cc1S(=O)(=O)Nc1cccc(-c2ncc3c(-c4ncc[nH]4)n[nH]c3c2F)c1F` [Example 3AG, 5-chloro-N-(2-fluoro-3-(7-fluoro-3-(1H-imidazol-2-yl)-1H-pyrazolo[4,3-c]pyridin-6-yl)phenyl)-2-methoxy-pyridine-3-sulfonamide], the IC50 is < 500 nM.

Regarding `Cc1ncc(F)cc1S(=O)(=O)Nc1ccc(F)c(-c2ccc3c(-c4cccc(=O)[nH]4)n[nH]c3c2F)c1F` [Example 15, N-(2,4-Difluoro-3-(7-fluoro-3-(6-oxo-1,6-dihydropyridin-2-yl)-1H-indazol-6-yl)phenyl)-5-fluoro-2-methylpyridine-3-sulfonamide], the IC50 is < 500 nM.

With `Cc1ncc(F)cc1S(=O)(=O)Nc1cc(F)cc(-c2ccc3c(C(=O)NCCCN(C)C)n[nH]c3c2F)c1F` [Example 3CD, 6-(2,5-difluoro-3-((5-fluoro-2-methylpyridine)-3-sulfonamido)phenyl)-N-(3-(dimethylamino)propyl)-7-fluoro-1H-indazole-3-carboxamide], the IC50 is < 500 nM.

On to `COc1ncc(Cl)cc1S(=O)(=O)Nc1ccc(F)c(-c2ccc3c(C(=O)NC[C@@H]4CCCN4C)n[nH]c3c2F)c1F` [Example 3E, 6-(3-((5-chloro-2-methoxy-pyridine)-3-sulfonamido)-2,6-difluorophenyl)-7-fluoro-N-(((S)-1-methylpyrrolidin-2-yl)methyl)-1H-indazole-3-carboxamide], for which the IC50 is < 500 nM.

`COc1ncc(F)cc1S(=O)(=O)Nc1ccc(F)c(-c2ccc3c(C(=O)NC4CCN(C)CC4)n[nH]c3c2F)c1F` [Example 3AJ, 6-(2,6-difluoro-3-((5-fluoro-2-methoxypyridine)-3-sulfonamido)phenyl)-7-fluoro-N-(1-methylpiperidin-4-yl)-1H-indazole-3-carboxamide]: the IC50 was < 500 nM.

`COc1cccc(-c2n[nH]c3c(F)c(-c4c(F)ccc(NS(=O)(=O)c5cc(F)cnc5C)c4F)ccc23)n1` [Example 14, N-(2,4-Difluoro-3-(7-fluoro-3-(6-methoxypyridin-2-yl)-1H-indazol-6-yl)phenyl)-5-fluoro-2-methylpyridine-3-sulfonamide] displayed an IC50 of 500 to 2500 nM.

Turning to `COc1ncc(C#N)cc1S(=O)(=O)Nc1ccc(F)c(-c2ccc3c(C(=O)NCCCO)n[nH]c3c2F)c1F` [Example 4C], the IC50 lay in the range of 500 to 2500 nM.

As to `COc1ncc(F)cc1S(=O)(=O)Nc1cccc(-c2ccc3c(C4CCC(=O)N4)n[nH]c3c2F)c1F` (stereo not shown) [Example 12, 5-Fluoro-N-(2-fluoro-3-(7-fluoro-3-(5-oxopyrrolidin-2-yl)-1H-indazol-6-yl)phenyl)-2-methoxypyridine-3-sulfonamide], the IC50 was > 10000 nM.

With `COc1ncc(C#N)cc1S(=O)(=O)Nc1cc(F)cc(-c2ccc3c(-c4ncc[nH]4)n[nH]c3c2F)c1F` [Example 3BV, 5-cyano-N-(2,5-difluoro-3-(7-fluoro-3-(1H-imidazol-2-yl)-1H-indazol-6-yl)phenyl)-2-methoxypyridine-3-sulfonamide], the IC50 is < 500 nM.

As to `O=C1CCc2c1cc(F)cc2S(=O)(=O)Nc1ccc(F)c(-c2ccc3c(C(=O)NCCCO)n[nH]c3c2F)c1F` [Example 4U], the IC50 is < 500 nM.

On to `COc1ncc(Cl)cc1S(=O)(=O)Nc1ccc(F)c(-c2ccc3c(C(=O)Nc4nnn(C)n4)n[nH]c3c2F)c1F` [Example 3CZ, 6-(3-((5-chloro-2-methoxy-pyridine)-3-sulfonamido)-2,6-difluorophenyl)-7-fluoro-N-(2-methyl-2H-tetrazol-5-yl)-1H-indazole-3-carboxamide], for which the IC50 fell in the range of 500 to 2500 nM.

Molecule `Cc1ccc(S(=O)(=O)Nc2ccc(F)c(-c3ccc4c(C(N)=O)n[nH]c4c3F)c2F)c(C)n1` [Example 3DL, 6-(3-((2,6-dimethylpyridine)-3-sulfonamido)-2,6-difluoro-phenyl)-7-fluoro-1H-indazole-3-carboxamide] had an IC50 of 500 to 2500 nM.

With `COc1ncc(Cl)cc1S(=O)(=O)Nc1ccc(F)c(-c2ccc3c(C(=O)Nc4cc(F)cc(Cl)c4)n[nH]c3c2F)c1F` [Example 3DA, 6-(3-((5-chloro-2-methoxy-pyridine)-3-sulfonamido)-2,6-difluorophenyl)-N-(3-chloro-5-fluorophenyl)-7-fluoro-1H-indazole-3-carboxamide], the IC50 is 2500 to 10000 nM.

For the molecule `COc1ncc(F)cc1S(=O)(=O)Nc1ccc(F)c(-c2ccc3c(C(=O)NCCCO)n[nH]c3c2F)c1F` [Example 3R, 6-(2,6-difluoro-3-((5-fluoro-2-methoxypyridine)-3-sulfonamido)phenyl)-7-fluoro-N-(3-hydroxypropyl)-1H-indazole-3-carboxamide], the IC50 is < 500 nM.

`O=C(NCCCO)c1n[nH]c2c(F)c(-c3c(F)ccc(NS(=O)(=O)c4cccn5ccnc45)c3F)ccc12` [Example 3AR, 6-(2,6-difluoro-3-(imidazo-[1,2-a]pyridine-8-sulfon-amido)phenyl)-7-fluoro-N-(3-hydroxypropyl)-1H-indazole-3-carboxamide] displayed an IC50 of 2500 to 10000 nM.

Consider `COc1ncc(C#N)cc1S(=O)(=O)Nc1ccc(F)c(-c2ccc3c(C(N)=O)n[nH]c3c2F)c1F` [Example 3CY, 6-(3-((5-cyano-2-methoxy-pyridine)-3-sulfonamido)-2,6-difluorophenyl)-7-fluoro-1H-indazole-3-carboxamide], for which the IC50 is 500 to 2500 nM.

Consider `COc1ncc(Cl)cc1S(=O)(=O)Nc1cc(F)cc(-c2ccc3c(-c4ncc[nH]4)n[nH]c3c2F)c1F` [Example 3C, 5-chloro-N-(2,5-difluoro-3-(7-fluoro-3-(1H-imidazol-2-yl)-1H-indazol-6-yl)phenyl)-2-methoxypyridine-3-sulfonamide], for which the IC50 was < 500 nM.

Regarding `COc1nc(C)c(Cl)cc1S(=O)(=O)Nc1ccc(F)c(-c2ccc3c(-c4ncc[nH]4)n[nH]c3c2F)c1F` [Example 3DD, 5-chloro-N-(2,4-difluoro-3-(7-fluoro-3-(1H-imidazol-2-yl)-1H-indazol-6-yl)phenyl)-2-methoxy-6-methylpyridine-3-sulfonamide], the IC50 is < 500 nM.

Regarding `COc1ncc(C#N)cc1S(=O)(=O)Nc1cc(F)cc(-c2ccc3c(C(=O)NCCCN(C)C)n[nH]c3c2F)c1F` [Example 3CE, 6-(3-((5-cyano-2-methoxy-pyridine)-3-sulfonamido)-2,5-difluorophenyl)-N-(3-(dimethylamino)propyl)-7-fluoro-1H-indazole-3-carboxamide], the IC50 is > 10000 nM.

The IC50 is the concentration that gives 50% inhibition. Read a low IC50 as greater potency in that assay.
